Laboratory results published in US7279302B2, “Methods for identifying herbicidal compounds” (Bayer CropScience S.A., priority 2000, dated 2007).
pKi: −log10 of the molar value.

Key:
Assay type in all cases: biochemical
[1] = target: T1, TyrA-ATc arogenate dehydrogenase (Arabidopsis thaliana, UniProt Q944B6, V36M); assay: arogenate dehydrogenase activity, spectrophotometric monitoring at 340 nm, recombinant TyrA-ATc; details: for Michaelis constant: TyrA-Atc, Km for substrate/cofactor; for inhibition of arogenate dehydrogenase activity: TyrA-ATc, 1 mM
T1 construct: introduces an ATG initiating codon and an Nde I restriction site (underlined) at position 174 from the first ATG codon (V58M); made in house; host or cells: Escherichia coli AT2471 (pET21a(+)), soluble crude extract
T1 sequence (Q944B6 36-640 V36M): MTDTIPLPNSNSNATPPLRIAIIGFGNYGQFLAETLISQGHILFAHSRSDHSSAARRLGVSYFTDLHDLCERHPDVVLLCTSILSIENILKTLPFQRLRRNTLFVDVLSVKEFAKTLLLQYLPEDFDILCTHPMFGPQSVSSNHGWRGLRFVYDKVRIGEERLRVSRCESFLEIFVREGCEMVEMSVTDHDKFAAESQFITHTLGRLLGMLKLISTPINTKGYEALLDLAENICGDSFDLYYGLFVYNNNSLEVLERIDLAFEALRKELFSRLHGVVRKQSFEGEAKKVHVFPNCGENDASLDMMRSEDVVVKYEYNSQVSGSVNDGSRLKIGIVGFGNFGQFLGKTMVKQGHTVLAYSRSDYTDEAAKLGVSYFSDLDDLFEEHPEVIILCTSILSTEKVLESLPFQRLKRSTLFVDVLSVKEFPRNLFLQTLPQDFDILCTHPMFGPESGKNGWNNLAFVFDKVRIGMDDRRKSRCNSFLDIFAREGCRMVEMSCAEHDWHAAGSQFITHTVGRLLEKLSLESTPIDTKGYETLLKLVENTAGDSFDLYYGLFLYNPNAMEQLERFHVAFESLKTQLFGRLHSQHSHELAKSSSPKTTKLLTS
Description: (§1) The arogenate dehydrogenase activity is measured at 25° C. by spectrophotometric monitoring, at 340 nm, of the formation of NADH or NADPH in a solution containing 50 mM of Tris-HCl, pH 8.6, 300 μm of arogenate and 1 mM of NAD or […] in a total volume of 200 μl.
(§2) Eshcerichia coli AT2471 cells were transformed with each one of the plasmids pET21-TyrA-AT obtained in example 3, and then cultured at 37° C. in 2 liters of Luria-Bertani medium supplemented with 100 μg/ml of carbenicillin. When the culture had reached the equivalent of an absorbance at 600 nm (A600) of 0.6, 1 mM of isopropyl-β-D-thiogalactoside was added to the culture medium in order to induce recombinant protein synthesis. The cells were then cultured for 16 h at 28° C., harvested, and then centrifuged for 20 min at 40 000 g. The pellet was then resuspended in a 50 mM Tris-HC1 buffer, pH 7.5, containing 1 mM EDTA, 1 mM dithiothreitol, 1 mM benzamidine HCl and 5 mM aminocaproic acid, and then sonicated (100 pulses every 3 seconds at power 5) with a Vibra-Cell disrupter (Sonics and Materials, Danbury, Conn., USA). The crude extracts thus obtained were then centrifuged for 20 min at 40 000 g, and the supernatants were used directly for the enzyme assays.
(§3) The biochemical characterization of the recombinant arogenate dehydrogenase enzymes was carried out using the soluble protein extracts of the transformed E. coli strains. The arogenate dehydrogenase activity was measured according to the method described in example 4. […] No arogenate dehydrogenase activity was detected in the presence of NAD, and no prephenate dehydrogenase activity was detected whatever the cofactor used (NADP or NAD) and whatever the protein tested (TyrA-ATc, TyrA-AT1 or TyrA-AT2). […] Each one of these enzymes has a Michaelis-Menten-type behavior, and their Km value for arogenate and NADP is relatively the same (FIGS. 2 and 3). The Michaelis constants for NADP are, respectively, 40 μM for TyrA-Atc, 60 μM for TyrA-AT1, and 20 μM for TyrA-AT2. The Michaelis constants for arogenate are, respectively, 70 μM for TyrA-Atc, 45 μM for TyrA-AT1, and 45 μM for TyrA-AT2. In addition, like the other plant arogenate dehydrogenases (Byng et al., 1981, Phytochemistry 6, 1289-1292; Connelly and Conn, 1986, Z. Naturforsch 41c, 69-78; Gaines et al., 1982 Planta 156, 233-240), the Arabidopsis arogenate dehydrogenases are all very sensitive to tyrosine, the product of the enzyme reaction, and insensitive to 1 mM of phenylalanine and 1 mM of p-hydroxyphenylpyruvate.

[2] = target: T2, TyrA-AT1 arogenate dehydrogenase (Arabidopsis thaliana, UniProt Q944B6); assay: arogenate dehydrogenase activity, spectrophotometric monitoring at 340 nm, recombinant TyrA-AT1; details: for Michaelis constant: Km for substrate/cofactor; for inhibition of arogenate dehydrogenase activity: 1 mM
T2 construct: recombinant proteins were observed only with the constructs encoding the proteins M58-TyrA-Atc and M58-TyrA-AT1; made in house; host or cells: Escherichia coli AT2471 (pET21a(+)), soluble crude extract
T2 sequence (Q944B6 with tags, fused parts or gaps): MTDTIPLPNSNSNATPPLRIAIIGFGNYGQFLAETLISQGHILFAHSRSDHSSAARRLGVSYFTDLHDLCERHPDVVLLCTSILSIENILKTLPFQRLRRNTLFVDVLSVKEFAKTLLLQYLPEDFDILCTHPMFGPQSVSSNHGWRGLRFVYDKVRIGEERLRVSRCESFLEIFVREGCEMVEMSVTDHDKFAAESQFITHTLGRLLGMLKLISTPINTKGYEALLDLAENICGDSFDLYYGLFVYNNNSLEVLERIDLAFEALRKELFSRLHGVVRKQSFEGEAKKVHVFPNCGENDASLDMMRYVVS
Description: as §1, §2, §3

[3] = target: T3, TyrA-AT2 arogenate dehydrogenase (Arabidopsis thaliana, UniProt Q944B6); assay: arogenate dehydrogenase activity, spectrophotometric monitoring at 340 nm, recombinant TyrA-AT2; details: for Michaelis constant: Km for substrate/cofactor; for inhibition of arogenate dehydrogenase activity: 1 mM
T3 construct: at the ATG codon of the second open reading frame (at position 1081 from the first ATG codon); made in house; host or cells: Escherichia coli AT2471 (pET21a(+)), soluble crude extract
T3 sequence (Q944B6 339-640): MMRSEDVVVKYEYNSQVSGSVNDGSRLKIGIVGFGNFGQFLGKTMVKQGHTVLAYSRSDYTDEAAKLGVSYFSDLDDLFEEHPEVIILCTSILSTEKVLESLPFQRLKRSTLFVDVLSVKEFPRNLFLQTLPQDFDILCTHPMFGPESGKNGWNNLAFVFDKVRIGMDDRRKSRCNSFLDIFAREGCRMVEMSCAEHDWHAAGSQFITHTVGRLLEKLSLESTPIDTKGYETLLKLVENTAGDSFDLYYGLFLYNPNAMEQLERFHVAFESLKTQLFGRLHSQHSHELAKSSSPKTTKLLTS
Description: as §1, §2, §3

[4] = system: Synechocystis arogenate dehydrogenase; assay: arogenate dehydrogenase activity, spectrophotometric monitoring at 340 nm, recombinant Synechocystis enzyme; details: for Michaelis constant: Km for substrate/cofactor
Description: as §1, §2
The sequence of the gene encoding the A. thaliana arogenate dehyrogenase identified in example 1 (TyrA) made it possible to identify an arogenate dehydrogenase gene in the bacterium Synechocystis (accession number: 1652956). This gene was originally described as encoding a “prephenate dehydrogenase” enzyme. It was isolated from a Synechocystis genomic library and the enzyme was produced in the same way as the A. thaliana enzyme, according to the protocol described in example 5 . […] The arogenate dehydrogenase activity was measured according to the method described in example 4 . […] No arogenate dehydrogenase activity was detected in the presence of NAD, and no prephenate dehydrogenase activity was detected whatever the cofactor used (NADP or NAD). […]

[5] = target: T4, TyrA-ATc arogenate dehydrogenase (Arabidopsis thaliana, UniProt Q944B6); assay: arogenate dehydrogenase activity, spectrophotometric monitoring at 340 nm, recombinant TyrA-ATc; details: TyrA-Atc; inhibition competitive with respect to arogenate
T4 construct: introduces an ATG initiating codon and an Nde I restriction site (underlined) at position 174 from the first ATG codon (V58M); made in house; host or cells: Escherichia coli AT2471 (pET21a(+)), soluble crude extract
T4 sequence (Q944B6 36-640 V36M): as the sequence (Q944B6 36-640 V36M) above
Description: as §1, §2, §3

[6] = inhibition competitive with respect to arogenate

SMILES	Michaelis constant [1] [µM]	Michaelis constant [2] [µM]	Michaelis constant [3] [µM]	Michaelis constant [4] [µM]	inhibition of arogenate dehydrogenase activity [1]	inhibition of arogenate dehydrogenase activity [2]	inhibition of arogenate dehydrogenase activity [3]	other results
NC(=O)c1ccc[n+]([C@@H]2O[C@H](COP(=O)([O-])OP(=O)(O)OC[C@H]3O[C@@H](n4cnc5c(N)ncnc54)[C@H](OP(=O)(O)O)[C@@H]3O)[C@@H](O)[C@H]2O)c1 [NADP]	40	60	20	6	–	–	–	–
N[C@@H](CC1(C(=O)O)C=CC(O)C=C1)C(=O)O (stereo partly drawn) [arogenate]	70	45	45	107	–	–	–	–
O=C(O)C(=O)Cc1ccc(O)cc1 [p-hydroxyphenylpyruvate]	–	–	–	–	insensitive	insensitive	insensitive	–
N[C@@H](Cc1ccccc1)C(=O)O [phenylalanine]	–	–	–	–	insensitive	insensitive	insensitive	–
O=C(O)C(=O)CC1(C(=O)O)C=CC(O)C=C1 (stereo not drawn) [prephenate]	–	–	–	–	does not inhibit	does not inhibit	does not inhibit	inhibition of arogenate dehydrogenase activity ([4]; 1 mM): does not inhibit
N[C@@H](Cc1ccc(O)cc1)C(=O)O [tyrosine]	–	–	–	–	–	–	–	pKi [5]: 4.85; pKi [2, 6]: 5.10; pKi [3, 6]: 4.92
